Laboratory results reported in patent publication US20250290032A1, “DEVICE AND METHODS FOR ENGINEERING AND MEASURING FLATTENED 3D CELL CULTURES” (The Trustees of Indiana University, priority 2022, published 2025).

Legend:
[1] = test system: flattened spinal cord organoids (fSCOs); test: MEA mean firing rate of flattened spinal cord organoids after capsaicin and short-term DAMGO; format: cell-based, human
Description: (§1) After 10 days of growing, the flattened organoids as developed in accordance with the present disclosure were put into contact with bottom electrodes for measuring electrical and neuron activity. Recording of the spinal cord organoids' electrical activity was performed by using the Axion Mestro Edge (Axion inc). The spinal cord organoids were kept at 37° C. maintained by an internal heater and infused with 5% CO2. To determine the mean firing rate of a spinal cord organoid, the 3-minute MEA recording was repeated 5 times. The final mean firing rate of the organoid was calculated as the average mean firing rate of the 3 most consistent recordings among the 5 recordings. To reduce the variation brought by adding substance, the medium was also refreshed before measuring mean firing rate baseline. The substance was first diluted into ScM IV at 2× of the desired concentration, then half of the medium was replaced with the 2× concentrated solution to reach the desired concentration.
Capsaicin, a transient receptor potential cation channel subfamily V member 1 (TRPV1) agonist, was applied to fSCOs to model pain responses. […] Next, capsaicin and different concentrations of DAMGO together to test the pain relief effects of different opioids doses. […] As the opioids doses increase, the fSCOs' firing rates decreased, and the organoids reached minimal firing rates when the concentration was higher than 1 μM.

[2] = test system: flattened spinal cord organoids (fSCOs); test: Chronic opioid induced hyperalgesia model: 8-day DAMGO administration, MEA mean firing rate response to capsaicin; format: cell-based, human
Description: as §1
The fSCOs of the present disclosure were exposed to prolonged opioid administration to test the tolerance of the organoids to opioid induced hyperalgesia. The fSCOs were treated with DAMGO (500 nM) for 8 days and their responses to pain modulators were tested every other day. […] Organoids treated together with DAMGO and Naloxone, a μ-opioid receptor antagonist, were also tested to determine whether the Naloxone could reduce the opioid induced hyperalgesia.

μ-opioid receptor = molecular target: T1, μ-opioid receptor (Homo sapiens, UniProt P35372); test: Immunofluorescence staining of μ-opioid receptor expression after prolonged administration; format: cell-based; conditions: prolonged DAMGO treatment group (500 nM, 8 days)
T1 construct: confirm that the presence of neuron populations that express μ-opioid receptors; endogenous in cells; host or cells: flattened spinal cord organoids (fSCOs) derived from WA09 cells
T1 sequence (P35372 whole entry): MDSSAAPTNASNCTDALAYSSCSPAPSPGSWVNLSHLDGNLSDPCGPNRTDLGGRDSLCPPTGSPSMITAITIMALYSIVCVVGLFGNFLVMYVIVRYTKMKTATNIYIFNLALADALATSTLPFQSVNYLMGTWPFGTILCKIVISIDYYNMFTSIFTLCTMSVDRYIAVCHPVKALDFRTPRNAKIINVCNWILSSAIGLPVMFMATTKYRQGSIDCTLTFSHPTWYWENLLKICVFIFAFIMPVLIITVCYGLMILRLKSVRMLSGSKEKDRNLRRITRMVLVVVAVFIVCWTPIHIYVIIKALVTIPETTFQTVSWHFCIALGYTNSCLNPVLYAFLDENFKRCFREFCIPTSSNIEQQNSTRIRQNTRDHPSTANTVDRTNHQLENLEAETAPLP
Description: To first validate that the flattened organoids could be utilized to model pain relief, first immunofluorescence staining was used to confirm that the presence of neuron populations that express μ-opioid receptors. Sectioned samples were placed onto charged glass slides and washed three times with 1×PBS. The samples were then treated with 3N hydrochloric acid (HCl) for 15 minutes for antigen retrieval. Following HCl treatment, the samples were washed again twice with 1×PBS and subjected to blocking (0.3% Triton-X100, 5% normal goat serum in 1×PBS) for 1 hour, followed by primary antibody incubation in a humidified chamber at 4° C. overnight. The samples were then washed 3 times with 1×PBS followed by secondary antibody incubation at room temperature for 1 hour before being washed and coverslipped with gold anti-fade mounting medium containing DAPI (Invitrogen).

## COc1cc(CNC(=O)CCCC/C=C/C(C)C)ccc1O [Capsaicin]
[1]; Capsaicin
  % change From Baseline in Mean Firing Rate (Hz): −0.1%
[1]; capsaicin alone, fSCOs, MEA
  increase of mean firing rate of organoids after stimulation by capsaicin: 35.4%

## C[C@@H](NC(=O)[C@@H](N)Cc1ccc(O)cc1)C(=O)NCC(=O)N(C)[C@@H](Cc1ccccc1)C(=O)NCCO [DAMGO]
[1]; Capsaicin + 100 nM DAMGO
  % change From Baseline in Mean Firing Rate (Hz): +0.3%
[1]; Capsaicin + 500 nM DAMGO
  % change From Baseline in Mean Firing Rate (Hz): −0.2%
[1]; Capsaicin + 1 uM DAMGO
  % change From Baseline in Mean Firing Rate (Hz): −0.42%
[1]; Capsaicin + 10 uM DAMGO
  % change From Baseline in Mean Firing Rate (Hz): −0.4%
[1]; capsaicin together with DAMGO
  DAMGO concentration at which organoids reached minimal firing rates: higher than 1 μM
[1]; capsaicin together with minimal dose of DAMGO (100 nM)
  firing rate of spinal cord organoids versus baseline: dropped below baseline
[2]; after 8-day administration, Ctrl and DAMGO+Naloxone group
  firing rate versus baseline after capsaicin plus low dose of DAMGO (100 nM): reduce the firing rate below baseline
[2]; after 8-day administration, organoids in the DAMGO group (500 nM)
  DAMGO needed to eliminate pain activity and return to activity baseline: more than 1 μM
[2]; day 6 of DAMGO (500 nM) treatment, control 48%
  mean firing rate increase after capsaicin treatment: 73%
[2]; day 8 of DAMGO (500 nM) treatment, control 39%
  mean firing rate increase after capsaicin treatment: 93%
[2]; first 4 days of DAMGO (500 nM) treatment
  mean firing rate increase after capsaicin treatment versus control group: no significant difference
μ-opioid receptor
  μ-opioid receptor expression: downregulated
